From patent US20210228500A1, “CELLULAR RETINOID BINDING PROTEIN ANTAGONISTS AND USES THEREOF” (CASE WESTERN RESRVE UNIVERSITY, priority 2018, published 2021)
“Also recorded” adds a separate entry of the source.

How the values were obtained:
holo-CRBP1 = target: T1, holo-CRBP1 (Homo sapiens, UniProt P09455); test: High-throughput screening for CRBP1 ligands; format: binding; details: 986 compounds at 5 μM, 1 μM holo-CRBP1
T1 construct: made in house
T1 sequence (P09455 1-135): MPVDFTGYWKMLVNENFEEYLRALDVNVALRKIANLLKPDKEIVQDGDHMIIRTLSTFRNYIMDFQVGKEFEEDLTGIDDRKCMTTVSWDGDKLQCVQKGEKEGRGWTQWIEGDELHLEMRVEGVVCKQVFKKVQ
Protocol: The principle of the fluorescence binding assays described above was adapted for the HTS in a 96-well plate format. Each well contained 0.2 mL of 20 mM Tris/HCl, pH 7.4 and 1 μM of holo-CRBP1. Tested compounds from two independent libraries (Bioactive Lipid I Screening Library form Cayman Chemicals and Screen-Well Bioactive Lipid Library from Enzo Life Science, total of 986 chemicals) were delivered in dimethyl sulfoxide (DMSO) to the final concentration of 5 μM. After 15 min of incubation at room temperature (RT), the samples were excited at 285 nm, and the fluorescence signals from CRBP1 (at 350 nm) and atROL (at 480 nm) were recorded in a Flexstation3 microplate reader (Molecular Devices). Changes in the fluorescence emissions were evaluated by calculating ratio between signals at 480 and 350 nm. To eliminate false positives, only those wells in which the increase in protein fluorescence was accompanied by proportional decline in the fluorescence of atROL were considered as potential hits.
To search for compounds interacting with CRBP1, we developed an HTS strategy that minimalized experimental bias associated with investigating the binding of hydrophobic ligands to a protein specialized for interaction with small lipophilic molecules. It is based on the fluorescence properties of CRBP1 in complex with its natural ligand, atROL. […]

CRBP3 = target: T2, CRBP3 (Homo sapiens, UniProt P82980); test: Crystal structure of CRBP3 in complex with abn-CBD; format: binding; details: crystal structure PDB No. 6E5W
T2 construct: thrombin cut site (residual residues after digestion) (C); 6x histidine tag (C, cleaved yes); made in house; host or cells: E. coli BL21 (DE3) (as for CRBP2)
T2 sequence (P82980 1-135): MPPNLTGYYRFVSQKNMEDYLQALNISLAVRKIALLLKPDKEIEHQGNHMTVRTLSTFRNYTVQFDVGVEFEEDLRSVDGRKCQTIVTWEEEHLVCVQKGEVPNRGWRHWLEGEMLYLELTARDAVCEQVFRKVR
Protocol: The cDNA of human CRBP3 was purchased from Origene Technologies. To introduce a thrombin cut site at the C-terminus of the protein, the cDNA was amplified by PCR and subcloned into pET30b vector. The next steps of the expression and purification of CRBP3 were identical to the procedure described above for CRBP2.
Crystals of CRBP1 in complex abn-CBD and its derivatives (abn-CBDO or CBDO) were grown essentially as described by Silvaroli et al (ACS Chem Biol. 2019, 15; 14(3)). The apo protein at 3 mg mL-1 was preincubated with 300 μM of a ligand in 10 mM Tris-HCl buffer, pH 8.0, 150 mM NaCl for 15 min on ice. This sample (1 μL) was mixed in 1:1 ratio with a crystallization solution composed of 0.1 M BisTris, pH 5.5, and 25% poly(ethylene glycol) (PEG) 3350 (w/v). Crystals of CRBP3 with abn-CBD were obtained by preincubating apoprotein at 8 mg mL-1 with 300 μM of the ligand for 15 min and setting up crystallization drops by mixing 1 μL of the protein sample with 1 μL of 0.2 M sodium malonate, pH 5.0 and 20% PEG 3350 (w/v) solution. For CRBP4, the crystallization conditions included 0.2 M NaCl, 0.1 M BisTris, pH 6.5, and 25% PEG 3350 (w/v). Similar to the other CRBPs, CRBP4 (6 mg mL^−1) was preincubated with abn-CBD prior to the crystallization. All of the protein crystals were obtained by the sitting drop vapor diffusion method at RT. […]

## C=C(C)[C@@H]1CCC(C)=C[C@H]1c1c(O)cc(O)cc1CCCCC [abn-CBD, 4-[(1R,6R)-3-Methyl-6-prop-1-en-2-ylcyclohex-2-en-1-yl]-5-pentylbenzene-1,3-diol]
holo-CRBP1
  HTS result: unique hit; also recorded: single hit
CRBP3
  binding to CRBP3: bind abn-CBD similarly to CRBP1
